In BigSolDB 2.1:

O=c1[nH]c(=O)n(C2CCCO2)cc1F (centres undefined)
solubility (mole fraction)
Conditions	273.15 K	278.15 K	283.15 K	288.15 K	293.15 K	298.15 K	303.15 K	308.15 K	313.15 K
in acetone	0.00932	0.0115	0.014	0.0168	0.0196	0.0233	0.0277	0.0326	0.0388
in ethanol	0.00118	0.00152	0.00198	0.00253	0.00318	0.00402	0.00506	0.00629	0.00767
in ethyl acetate	0.00607	0.00718	0.00837	0.00957	0.0109	0.0122	0.0137	0.0153	0.0175
in isopropanol	0.00086	0.00109	0.00139	0.00179	0.00227	0.00286	0.00358	0.00444	0.00547
in methanol	0.00362	0.00428	0.00495	0.00592	0.00692	0.00802	0.00925	0.0107	0.0126
in n-propanol	0.00112	0.00141	0.00176	0.00223	0.00274	0.00343	0.0042	0.00516	0.00618
